Reference: US20230355815A1, “ACTIVE DELIVERY OF RADIOTRACERS ACROSS THE BLOOD BRAIN BARRIER” (The Board of Trustees of the Leland Stanford Junior …, priority 2021, published 2023)

Legend:
TREM1 signaling = test: LP17 treatment study in EAE mice; format: in vivo, mouse; conditions: vs saline
Procedure: Spinal cords were further analyzed via high-resolution autoradiography. Flow cytometry was performed on CNS tissues using TREM1, CD45, CD11b, CD11c, CD3, and Ly-6G to delineate immune cell populations. Quantitative PCR was performed to assess changes in mRNA expression. LP17, a decoy receptor peptide known to attenuate TREM1 signaling, was administered daily to pre EAE mice (10, 15 mg/kg, or saline i.p) for 10 days.
Blocking TREMi signaling genetically and pharmacologically attenuates EAE severity. To explore the biological relevance of TREMl in EAE development and progression, we assessed disease trajectory in KO EAE compared to WT EAE animals. While 83% of WT mice developed EAE, only 40% of Trem/KO mice developed symptoms during the same timeframe. […] Next, to determine if blocking TREM I signaling during disease development could have therapeutic effects, we treated WT EAE animals with LP 17 (10 or 15 mg/kg)—a 17 mer peptide decoy receptor, previously shown to attenuate TREMi signaling (25, 38)—and compared disease progression to vehicle (saline) treated mice.
LPI 7 peptide (sequence: […] […]) was synthesized by the Protein and Nucleic Acid Core Facility at Stanford University as previously described (J 9). WT EAE mice were induced with EAE and monitored daily as previously outlined. […] LP 17 or saline was administered daily (i.p) for 10 days and disease level was recorded.

TREM1 = conditions: animal models of sepsis; cited from earlier work
TSPO = target: T1, TSPO (Mus musculus, UniProt P50637); test: TSPO-PET/CT imaging of EAE mice; format: in vivo
T1 construct: endogenous in cells; host or cells: tissues of living C57BL/6 mice (EAE and naive)
Procedure: Mice were categorized as pre-symptomatic (pre; score 0, >1 g weight loss in 48 h), low (score 0.5-2), or high EAE (score 2.5-4.5). Anti-TREM1 monoclonal antibody (mAb) was DOTA-conjugated and radiolabeled with ^64Cu. PET/CT imaging was performed 20 hours post-injection of [^64Cu]TREM1-mAb (95-120 μCi, >99% RCP) or 50-60 min after TSPO-targeted radiotracer [^18F]GE-180 (231-269 μCi, >99% RCP). Following PET, mice were perfused to remove unbound intravascular tracer and radioactivity in central nervous system (CNS) tissues was measured using a gamma counter.
TREMl-PET is a more sensitive tool for detecting neuroinflammation in EAE compared to TSPO-PET Next, we examined the sensitivity of TREMl-PET compared to the gold standard approach for assessing neuroinflammation in vivo for both preclinical and clinical research—TSPO-PET. Naive and EAE mice were injected with [^18F]GE-180. a highly sensitive and selective tracer for TSPO in rodents (26), and PET images were acquired 50-60 min following tracer administration. […] Specifically, peritoneum adhesions encompassing the spleen. mesentery, and stomach, as well as abdominal granulomatous inflammation, have been reported in mice injected with CFA (27). […]
[^18F]GE-180 was synthesized as previously described (46). Chemical and radiochemical purity were determined by reverse-phase analytical HPLC (Phenomenex Luna column, 150×4.6 mm. particle size 3 μm. pore size 100 A) using a 11 min 50-95% gradient (0.1 mg/mL ascorbic acid in H2O:MeCN. monitored by gamma detection and UV at 254 and 280 nm). […]
PET images were analyzed using Vivoquant software (version 4.0. inviCRO) and visualized using Inveon Research Workspace (IRW, version 4.0: Siemens). Brain uptake was quantified as previously described (47). lo brief, a 3-dimensional mouse brain atlas was utilized to obtain tracer uptake values in a priori regions of interest (whole brain, pons. medulla. and cerebellum). Cervical/thoracic and lumbar spinal cord quantification was obtained via segmentation and exclusion of the vertebral column. […]

T1 sequence (P50637 whole entry): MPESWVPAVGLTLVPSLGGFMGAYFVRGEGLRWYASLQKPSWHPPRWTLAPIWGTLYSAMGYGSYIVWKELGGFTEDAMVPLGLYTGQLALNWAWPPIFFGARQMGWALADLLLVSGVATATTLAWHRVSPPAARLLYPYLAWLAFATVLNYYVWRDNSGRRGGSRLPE

Compound | EAE disease severity (TREM1 signaling; 10 mg/kg daily i.p. for 10 days from pre EAE stage) | EAE disease severity (TREM1 signaling; 15 mg/kg daily i.p. for 10 days from pre EAE stage) | pro-inflammatory mediators and survival (TREM1) | TSPO-PET signal in the brain (TSPO; EAE vs naive mice) | TSPO-PET uptake in cervical/thoracic and lumbar spinal cords (TSPO; EAE vs naive mice, 50-60 min post-injection) | CNS tracer binding (TSPO; control mice (CFA emulsion without MOG) vs naive untouched mice)
LP17: 17 mer peptide decoy receptor attenuating TREM1 signaling; sequence LQVTDSGL YRCVIYHPP (LQVTDSGLYRCVIYHPP) | not | Significant attenuation of disease severity | reduce pro-inflammatory mediators and increase survival | – | – | –
CC(C)[C@]12O[C@H]1[C@@H]1O[C@]13[C@]1(O[C@H]1C[C@H]1C4=C(CC[C@@]13C)C(=O)OC4)[C@@H]2O [triptolide] | – | – | reduce pro-inflammatory mediators and increase survival | – | – | –
CCN(CC)C(=O)[C@H]1CCCc2c1c1c(OC)cccc1n2CC[18F] [[^18F]GE-180] | – | – | – | no significant differences | significantly reduced uptake | decreased
